In ChEMBL document CHEMBL4406865, “Design, synthesis and biological evaluation of novel semicarbazone-selenochroman-4-ones hybrids as potent antifungal agents” (2019):
≈ marks a conversion by molar mass, not a printed value.

Tests used:
Type in all cases: functional
[1] = tested on: Candida albicans; experiment: Antifungal activity against Candida albicans CPCC400616 measured at 24 hrs by CLSI protocol based microbroth dilution method; details: CPCC400616, 24 h
[2] = tested on: Cryptococcus neoformans; experiment: Antifungal activity against Cryptococcus neoformans CGMCC2.3161 measured at 72 hrs by CLSI protocol based microbroth dilution method; details: CGMCC2.3161, 72 h
[3] = tested on: [Candida] zeylanoides; experiment: Antifungal activity against Candida zeylanoides CGMCC2.3739 measured at 24 hrs by CLSI protocol based microbroth dilution method; details: Dujonia zeylanoides, CGMCC2.3739, 24 h
[4] = tested on: Candida albicans; experiment: Antifungal activity against Candida albicans SC5314 incubated for 24 hrs by CLSI protocol based microbroth dilution method; details: SC5314, 24 h
[5] = tested on: Aspergillus fumigatus; experiment: Antifungal activity against Aspergillus fumigatus CGMCC 3.7795 measured at 72 hrs by CLSI protocol based microbroth dilution method; details: CGMCC 3.7795, 72 h
[6] = tested on: Candida albicans; experiment: Antifungal activity against fluconazole-resistant Candida albicans CaR incubated for 24 hrs by CLSI protocol based microbroth dilution method
[7] = tested on: Candida albicans; experiment: Antifungal activity against fluconazole-resistant Candida albicans isolate 100 incubated for 24 hrs by CLSI protocol based microbroth dilution method; details: isolate 100, 24 h
[8] = tested on: Candida albicans; experiment: Antifungal activity against fluconazole-resistant Candida albicans isolate 103 incubated for 24 hrs by CLSI protocol based microbroth dilution method; details: isolate 103, 24 h
[9] = tested on: Candida albicans; experiment: Antifungal activity against fluconazole-resistant Candida albicans isolate 17 incubated for 24 hrs by CLSI protocol based microbroth dilution method; details: isolate 17, 24 h

For `Cc1ccc(NC(=S)N/N=C2\CC[Se]c3ccc(C)cc32)cc1`, which MIC90 [1] is on record?
The MIC90 was 64 µg/mL (≈ 165 µM).

What about the MIC90 [2] of the same compound?
The MIC90 was 32 µg/mL (≈ 82.4 µM).

And the MIC90 [3]?
Its MIC90 is 8 µg/mL (≈ 20.6 µM).

And the MIC90 [4]?
Its MIC90 is 16 µg/mL (≈ 41.2 µM).

What about the MIC90 [5] of the same compound?
The MIC90 was over 128 µg/mL.

Which results are given for `Cc1ccc(C)c(NC(=S)N/N=C2\CC[Se]c3ccc(F)cc32)c1`?
MIC90 [1]: 8 µg/mL (≈ 19.7 µM); MIC90 [2]: 16 µg/mL (≈ 39.4 µM); MIC90 [3]: > 128 µg/mL; MIC90 [4]: 32 µg/mL (≈ 78.7 µM); MIC90 [5]: > 128 µg/mL

What does the source list for `COc1cccc(NC(=S)N/N=C2\CC[Se]c3ccccc32)c1`?
MIC90 [1]: 16 µg/mL (≈ 41 µM); MIC90 [2]: 4 µg/mL (≈ 10.2 µM); MIC90 [3]: 2 µg/mL (≈ 5.12 µM); MIC90 [4]: 16 µg/mL (≈ 41 µM); MIC90 [5]: > 128 µg/mL

Which results are given for `CCOc1ccc(NC(=O)N/N=C2\CC[Se]c3ccc(C)cc32)cc1`?
MIC90 [1]: 64 µg/mL (≈ 159 µM); MIC90 [2]: 32 µg/mL (≈ 79.5 µM); MIC90 [3]: > 128 µg/mL; MIC90 [4]: 8 µg/mL (≈ 19.9 µM); MIC90 [5]: > 128 µg/mL

With `S=C(N/N=C1\CC[Se]c2ccccc21)Nc1ccccc1` as the compound, how does the MIC90 [1] read?
The MIC90 was 0.5 µg/mL (≈ 1.39 µM).

What about the MIC90 [2] of the same compound?
The MIC90 was 8 µg/mL (≈ 22.2 µM).

And the MIC90 [3]?
The MIC90 was 1 µg/mL (≈ 2.78 µM).

And the MIC90 [4]?
The MIC90 was 4 µg/mL (≈ 11.1 µM).

And the MIC90 [5]?
Its MIC90 is over 128 µg/mL.

What about the MIC90 [6] of the same compound?
The MIC90 was 64 µg/mL (≈ 178 µM).

What about the MIC90 [7] of the same compound?
The MIC90 was 32 µg/mL (≈ 88.8 µM).

What about the MIC90 [8] of the same compound?
Its MIC90 is over 128 µg/mL.

What about the MIC90 [9] of the same compound?
The MIC90 was 4 µg/mL (≈ 11.1 µM).

For `Cc1ccc(NC(=S)N/N=C2\CC[Se]c3ccc(F)cc32)cc1`, which MIC90 [1] is on record?
The MIC90 was 8 µg/mL (≈ 20.4 µM).

And the MIC90 [2]?
Its MIC90 is 2 µg/mL (≈ 5.1 µM).

And the MIC90 [3]?
Its MIC90 is 16 µg/mL (≈ 40.8 µM).

And the MIC90 [4]?
Its MIC90 is 32 µg/mL (≈ 81.6 µM).

And the MIC90 [5]?
The MIC90 was over 128 µg/mL.

`Fc1ccc2c(c1)/C(=N/NC(=S)Nc1ccccc1)CC[Se]2` was tested. Which MIC90 [1] did it give?
Its MIC90 is 0.25 µg/mL (≈ 0.661 µM).

What about the MIC90 [2] of the same compound?
Its MIC90 is 2 µg/mL (≈ 5.29 µM).

What about the MIC90 [3] of the same compound?
Its MIC90 is 8 µg/mL (≈ 21.1 µM).

What about the MIC90 [4] of the same compound?
Its MIC90 is 2 µg/mL (≈ 5.29 µM).

What about the MIC90 [5] of the same compound?
The MIC90 was over 128 µg/mL.

And the MIC90 [6]?
The MIC90 was 2 µg/mL (≈ 5.29 µM).

What about the MIC90 [7] of the same compound?
The MIC90 was 0.5 µg/mL (≈ 1.32 µM).

What about the MIC90 [8] of the same compound?
Its MIC90 is 0.5 µg/mL (≈ 1.32 µM).

And the MIC90 [9]?
The MIC90 was 2 µg/mL (≈ 5.29 µM).

`CCc1ccccc1NC(=O)N/N=C1\CC[Se]c2ccc(C)cc21` was tested. Which MIC90 [1] did it give?
The MIC90 was 64 µg/mL (≈ 166 µM).

And the MIC90 [2]?
Its MIC90 is 4 µg/mL (≈ 10.4 µM).

And the MIC90 [3]?
The MIC90 was 16 µg/mL (≈ 41.4 µM).

What about the MIC90 [4] of the same compound?
The MIC90 was 64 µg/mL (≈ 166 µM).

And the MIC90 [5]?
Its MIC90 is over 128 µg/mL.

Which results are given for `Cc1ccc(C)c(NC(=S)N/N=C2\CC[Se]c3ccc(C)cc32)c1`?
MIC90 [1]: 2 µg/mL (≈ 4.97 µM); MIC90 [2]: 16 µg/mL (≈ 39.8 µM); MIC90 [3]: 128 µg/mL (≈ 318 µM); MIC90 [4]: 2 µg/mL (≈ 4.97 µM); MIC90 [5]: > 128 µg/mL

Which MIC90 [1] does the source give for `Cc1ccc2c(c1)/C(=N/NC(=S)Nc1ccccc1)CC[Se]2` here?
Its MIC90 is 64 µg/mL (≈ 171 µM).

What about the MIC90 [2] of the same compound?
The MIC90 was 16 µg/mL (≈ 42.7 µM).

What about the MIC90 [3] of the same compound?
The MIC90 was over 128 µg/mL.

What about the MIC90 [4] of the same compound?
Its MIC90 is 64 µg/mL (≈ 171 µM).

And the MIC90 [5]?
The MIC90 was over 128 µg/mL.

What does the source list for `Cc1ccc2c(c1)/C(=N/NC(=O)Nc1ccccc1Cl)CC[Se]2`?
MIC90 [1]: 64 µg/mL (≈ 163 µM); MIC90 [2]: 64 µg/mL (≈ 163 µM); MIC90 [3]: > 128 µg/mL; MIC90 [4]: 32 µg/mL (≈ 81.5 µM); MIC90 [5]: > 128 µg/mL

Which MIC90 [1] does the source give for `O=C1CC[Se]c2ccccc21` here?
The MIC90 was 64 µg/mL (≈ 303 µM).

What about the MIC90 [2] of the same compound?
The MIC90 was 8 µg/mL (≈ 37.9 µM).

And the MIC90 [3]?
Its MIC90 is over 128 µg/mL.

What about the MIC90 [4] of the same compound?
The MIC90 was 4 µg/mL (≈ 18.9 µM).

And the MIC90 [5]?
The MIC90 was over 128 µg/mL.

With `NNC(=S)N/N=C1\CC[Se]c2ccc(F)cc21` as the compound, how does the MIC90 [1] read?
The MIC90 was 2 µg/mL (≈ 6.3 µM).

What about the MIC90 [2] of the same compound?
Its MIC90 is 4 µg/mL (≈ 12.6 µM).

And the MIC90 [3]?
Its MIC90 is 64 µg/mL (≈ 202 µM).

And the MIC90 [4]?
Its MIC90 is 4 µg/mL (≈ 12.6 µM).

What about the MIC90 [5] of the same compound?
The MIC90 was over 128 µg/mL.

What about the MIC90 [6] of the same compound?
Its MIC90 is 8 µg/mL (≈ 25.2 µM).

And the MIC90 [7]?
The MIC90 was 4 µg/mL (≈ 12.6 µM).

And the MIC90 [8]?
Its MIC90 is 2 µg/mL (≈ 6.3 µM).

And the MIC90 [9]?
The MIC90 was 8 µg/mL (≈ 25.2 µM).

With `CCc1ccccc1NC(=O)N/N=C1\CC[Se]c2ccccc21` as the compound, how does the MIC90 [1] read?
Its MIC90 is over 128 µg/mL.

What about the MIC90 [2] of the same compound?
Its MIC90 is over 128 µg/mL.

And the MIC90 [3]?
Its MIC90 is over 128 µg/mL.

What about the MIC90 [4] of the same compound?
The MIC90 was over 128 µg/mL.

What about the MIC90 [5] of the same compound?
The MIC90 was over 128 µg/mL.

With `Cc1ccc2c(c1)/C(=N/NC(=O)Nc1ccccc1)CC[Se]2` as the compound, how does the MIC90 [1] read?
The MIC90 was 64 µg/mL (≈ 179 µM).

And the MIC90 [2]?
The MIC90 was 8 µg/mL (≈ 22.3 µM).

What about the MIC90 [3] of the same compound?
The MIC90 was 16 µg/mL (≈ 44.7 µM).

What about the MIC90 [4] of the same compound?
The MIC90 was 4 µg/mL (≈ 11.2 µM).

What about the MIC90 [5] of the same compound?
Its MIC90 is over 128 µg/mL.

For `O=C(N/N=C1\CC[Se]c2ccc(F)cc21)Nc1cc(Cl)cc(Cl)c1`, which MIC90 [1] is on record?
Its MIC90 is over 128 µg/mL.

What about the MIC90 [2] of the same compound?
Its MIC90 is over 128 µg/mL.

And the MIC90 [3]?
The MIC90 was over 128 µg/mL.

And the MIC90 [4]?
The MIC90 was over 128 µg/mL.

What about the MIC90 [5] of the same compound?
Its MIC90 is over 128 µg/mL.

What does the source list for `CCc1ccccc1NC(=O)NN`?
MIC90 [1]: 64 µg/mL (≈ 357 µM); MIC90 [2]: 32 µg/mL (≈ 179 µM); MIC90 [3]: 64 µg/mL (≈ 357 µM); MIC90 [4]: 32 µg/mL (≈ 179 µM); MIC90 [5]: > 128 µg/mL

What does the source list for `COc1cccc(NC(=S)N/N=C2\CC[Se]c3ccc(C)cc32)c1`?
MIC90 [1]: 64 µg/mL (≈ 158 µM); MIC90 [2]: 32 µg/mL (≈ 79.1 µM); MIC90 [3]: > 128 µg/mL; MIC90 [4]: 64 µg/mL (≈ 158 µM); MIC90 [5]: > 128 µg/mL

For `Cc1ccc2c(c1)/C(=N/NC(=O)Nc1cc(Cl)cc(Cl)c1)CC[Se]2`, which MIC90 [1] is on record?
The MIC90 was over 128 µg/mL.

And the MIC90 [2]?
The MIC90 was over 128 µg/mL.

What about the MIC90 [3] of the same compound?
The MIC90 was over 128 µg/mL.

And the MIC90 [4]?
Its MIC90 is over 128 µg/mL.

And the MIC90 [5]?
Its MIC90 is over 128 µg/mL.
